Results as given in patent US6723364B1, “Fog treatment method using a liquid composition for treating fruits and vegetables and implementing device” (Xeda International, priority 1998, dated 2004).

Tested on: potato tubers
Test: Sprouting-inhibiting treatment of potato tubers by thermal fogging
Assay type: in vivo
Details: after 5 months; cold room 8 to 9° C.; 45 g/tonne then 15 g/tonne every 20 days by thermal fogging
Experimental: The effectiveness of eugenol and of isoeugenol in the sprouting-inhibiting treatment of potato tubers was evaluated and compared with that of other terpenes.
The following compositions were used in the case of eucalyptol, eugenol, isoeugenol, limonene, safrole and terpineol:
60% by weight of terpene;
7% by weight of a nonionic emulsifier;
33% by weight of butyl acetate.
In the case of L-carvone, the following composition was employed:
30% by weight of L-carvone;
10% by weight of ethanol;
5% by weight of nonionic emulsifier;
35% by weight of propylene glycol.
Isopropyl chlorophenylcarbamate (CIPC) is a compound used in the art as sprouting inhibitor for potato tubers. Its activity was compared with that of eugenol and of isoeugenol.
The composition based on isopropyl chloro-phenylcarbamate has the following formulation: […]
20% by weight of isopropyl chlorophenyl-carbamate;
50% by weight of propylene glycol;
10% by weight of nonionic emulsifier;
Each of the compositions tested was applied by thermal fogging. The temperature at the outlet of the thermal fogging device was 240° C., except in the case of the compositions based on L-carvone and on CIPC, where it was 180° C.
The amount of composition which has to be applied is calculated in each case so as to obtain an equivalent concentration of active material on the potato tubers.
In this example, repeated applications were carried out by following the following protocol:
45 g/tonne of tubers at the beginning of storage;
15 g/tonne of tubers every 20 days; so that, after 6 months, 165 g of active principle have been applied per tonne of tubers.
During storage, the tubers were stored in a cold room at a temperature of 8 to 9° C.

Compound	Loss in weight of the tubers [%]	Total weight of the sprouts >2 mm [g]	Tubers at the white point stage [%]	Tubers with sprouts 2 to 5 mm [%]	Tubers with sprouts <2 mm [%]	Tubers with sprouts >2 mm [%]	Tubers with sprouts >5 mm [%]	Unsprouted tubers [%]
C=C(C)[C@H]1CC=C(C)CC1 [LIMONENE, limonene]	4.5	283.8	1.2	8.7	1.5	96.8	88.1	0.5
L-carvone	3.3	42.0	8.7	28.8	32.3	55.0	26.2	4.0
